Measured values published in EP4678644A1, “SUBSTITUTED DIHYDROTHIENOPYRIMIDINE COMPOUND, PREPARATION METHOD THEREFOR, AND USE THEREOF” (Shanghai Yidi Biotechnology Co., Ltd., priority 2023, dated 2024).
Blank lines part the entries; values can stand above or below the molecule they belong to.

Key:
[1] = molecular target: PDE4D2 (Homo sapiens, UniProt Q08499); assay: PDE4D2 enzyme experiment (AMP-glo, cAMP substrate); format: biochemical; conditions: read-out: PDE4D2 IC50 Binding
Description: Inhibition rate % ^= (1 - (RLUpositive control - RLUcompound)/(RLUpositive control - RLUnegative control)) * 100.

[2] = molecular target: T1, PDE4B2 (Homo sapiens, UniProt Q07343); assay: PDE4B2 cell experiment (cAMP, Eu-cAMP tracer / Ulight-anti-cAMP); format: cell-based; conditions: Flpin-293-PDE4B2 cells; for inhibition at 0.01 µM / Cell Inhibition% @10 nM: 10 nM; for inhibition at 0.1 µM / Cell Inhibition% @100 nM: 100 nM
T1 construct: expressed in transfected cells; host or cells: Flp-In-293 (Flpin-293-PDE4B2 [sic])
T1 sequence (Q07343 1-564 isoform Q07343-2): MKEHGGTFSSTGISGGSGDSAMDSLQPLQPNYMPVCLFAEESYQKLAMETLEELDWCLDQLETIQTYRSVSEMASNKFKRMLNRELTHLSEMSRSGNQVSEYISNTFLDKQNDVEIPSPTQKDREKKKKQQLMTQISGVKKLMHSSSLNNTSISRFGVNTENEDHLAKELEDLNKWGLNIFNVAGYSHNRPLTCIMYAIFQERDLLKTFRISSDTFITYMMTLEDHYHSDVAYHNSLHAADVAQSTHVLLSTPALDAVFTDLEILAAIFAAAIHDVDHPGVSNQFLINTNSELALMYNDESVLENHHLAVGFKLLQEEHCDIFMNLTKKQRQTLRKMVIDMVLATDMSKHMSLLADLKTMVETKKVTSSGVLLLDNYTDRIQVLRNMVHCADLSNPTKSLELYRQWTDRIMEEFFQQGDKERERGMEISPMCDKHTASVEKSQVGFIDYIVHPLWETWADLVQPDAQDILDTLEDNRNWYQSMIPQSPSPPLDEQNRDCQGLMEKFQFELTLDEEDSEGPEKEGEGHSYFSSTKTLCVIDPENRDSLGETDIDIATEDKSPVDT

[3] = molecular target: T1, PDE4B2; assay: PDE4B2 enzyme experiment (AMP-glo, cAMP substrate); format: biochemical

Sequence of PDE4D2 (Q08499 303-809 limits assumed): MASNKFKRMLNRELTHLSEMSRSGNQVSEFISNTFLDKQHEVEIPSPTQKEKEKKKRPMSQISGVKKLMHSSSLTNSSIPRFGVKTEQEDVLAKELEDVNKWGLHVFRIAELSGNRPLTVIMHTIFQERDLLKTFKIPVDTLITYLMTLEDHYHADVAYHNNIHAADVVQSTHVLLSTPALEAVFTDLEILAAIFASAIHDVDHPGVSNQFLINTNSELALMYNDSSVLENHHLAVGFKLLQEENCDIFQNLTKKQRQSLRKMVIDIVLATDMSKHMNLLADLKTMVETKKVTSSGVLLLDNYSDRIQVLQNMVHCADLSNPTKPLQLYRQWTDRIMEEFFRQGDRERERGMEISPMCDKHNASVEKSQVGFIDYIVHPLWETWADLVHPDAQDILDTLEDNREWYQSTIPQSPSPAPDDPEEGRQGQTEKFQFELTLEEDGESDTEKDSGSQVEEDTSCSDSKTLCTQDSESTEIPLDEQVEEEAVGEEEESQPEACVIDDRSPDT

SMILES: [O-][S@+]1CCc2nc(N3CCc4sc(I)cc4C3)nc(NC3(CO)CCC3)c21 [Compound 56, (R)-4-((1-(hydroxymethyl)cyclobutyl)amino)-2-(2-iodo-6,7-dihydrothieno[3,2-c]pyridin-5(4H)-yl)-6,7-dihydrothieno[2,2-d]pyrimidine 5-oxide]
IC50 [1]: 1.95 nM | inhibition at 0.01 µM [2]: 40.6% | inhibition at 0.1 µM [2]: 90.2% | IC50 [3]: 0.998 nM

SMILES: [O-][S+]1CCc2nc(N3Cc4ccc(Br)cc4C3)nc(NC3(CO)CCC3)c21 (stereo not drawn) [Compound 59]
IC50 [1]: 4.75 nM | Cell Inhibition% @10 nM [2]: 42.65% | Cell Inhibition% @100 nM [2]: 85.82% | IC50 [3]: 2.12 nM

SMILES: Cn1c(=O)oc2cc3c(cc21)CCN(c1nc2c(c(NC4(CO)CCC4)n1)[S@+]([O-])CC2)C3 [Compound 68, (R)-6-(4-((1-(hydroxymethyl)cyclobutyl)amino)-5-oxido-6,7-dihydrothieno[3,2-d]pyrimidin-2-yl)-1-methyl-5,6,7,8-tetrahydrooxazolo[4,5-g]isoquinolin-2(1H)-one]
IC50 [1]: 0.77 nM | inhibition at 0.001 µM ([2]; 1 nM): 8.99% | inhibition at 0.01 µM [2]: 56.3% | inhibition at 0.1 µM [2]: 96.1% | IC50 [3]: 0.476 nM

SMILES: [O-][S+]1CCc2nc(N3CCc4cc(Cl)ncc4C3)nc(NC3(CO)CCC3)c21 (stereo not drawn) [Compound 78]
IC50 [1]: 4.02 nM | Cell Inhibition% @1 nM ([2]; 1 nM): 2.20% | Cell Inhibition% @10 nM [2]: 32.09% | Cell Inhibition% @100 nM [2]: 86.33% | IC50 [3]: 1.82 nM

SMILES: COc1ccc2sc3c(c2c1)CCN(c1nc2c(c(NC4(CO)CCC4)n1)[S+]([O-])CC2)C3 (stereo not drawn) [Compound 82]
IC50 [1]: 0.764 nM | Cell Inhibition% @1 nM ([2]; 1 nM): 19.08% | Cell Inhibition% @10 nM [2]: 77.47% | Cell Inhibition% @100 nM [2]: 99.87% | IC50 [3]: 0.366 nM

SMILES: [O-][S+]1CCc2nc(N3CC[C@@H]4c5ccccc5OC[C@H]4C3)nc(NC3(CO)CCC3)c21 (stereo partly drawn) [Compound 83]
IC50 [1]: 1.07 nM | Cell Inhibition% @1 nM ([2]; 1 nM): 5.79% | Cell Inhibition% @10 nM [2]: 47.82% | Cell Inhibition% @100 nM [2]: 97.34% | IC50 [3]: 0.621 nM

SMILES: [O-][S+]1CCc2nc(N3CCc4cc(N5CC(F)C5)ccc4C3)nc(NC3(CO)CCC3)c21 (stereo not drawn) [Compound 89]
IC50 [1]: 1.63 nM | Cell Inhibition% @1 nM ([2]; 1 nM): 3.47% | Cell Inhibition% @10 nM [2]: 37.42% | Cell Inhibition% @100 nM [2]: 95.32% | IC50 [3]: 0.705 nM

SMILES: [O-][S+]1CCc2nc(N3CCc4cc(N5CCCC5)ccc4C3)nc(NC3(CO)CCC3)c21 (stereo not drawn) [Compound 92]
IC50 [1]: 0.776 nM | Cell Inhibition% @1 nM ([2]; 1 nM): 3.35% | Cell Inhibition% @10 nM [2]: 43.69% | Cell Inhibition% @100 nM [2]: 98.17% | IC50 [3]: 0.161 nM

SMILES: Cn1c2c(c3ccc(Cl)cc3c1=O)CCN(c1nc3c(c(NC4(CO)CCC4)n1)[S+]([O-])CC3)C2 (stereo not drawn) [Compound 98]
IC50 [1]: 2.04 nM | Cell Inhibition% @1 nM ([2]; 1 nM): -1.71% | Cell Inhibition% @10 nM [2]: 46.69% | Cell Inhibition% @100 nM [2]: 95.76% | IC50 [3]: 0.889 nM

SMILES: COc1nc2c(c3ccc(Cl)cc13)CCN(c1nc3c(c(NC4(CO)CCC4)n1)[S+]([O-])CC3)C2 (stereo not drawn) [Compound 99]
IC50 [1]: 3.14 nM | Cell Inhibition% @1 nM ([2]; 1 nM): 4.18% | Cell Inhibition% @10 nM [2]: 43.68% | Cell Inhibition% @100 nM [2]: 96.53% | IC50 [3]: 1.24 nM

SMILES: [O-][S+]1CCc2nc(N3CCc4c(ncc5cc(Cl)ccc45)C3)nc(NC3(CO)CCC3)c21 (stereo not drawn) [Compound 100]
IC50 [1]: 1.15 nM | Cell Inhibition% @1 nM ([2]; 1 nM): 6.00% | Cell Inhibition% @10 nM [2]: 47.68% | Cell Inhibition% @100 nM [2]: 97.30% | IC50 [3]: 0.426 nM

SMILES: COc1nc2cc(Cl)ccc2c2c1CN(c1nc3c(c(NC4(CO)CCC4)n1)[S+]([O-])CC3)CC2 (stereo not drawn) [Compound 101]
IC50 [1]: 1.96 nM | IC50 ([2]; Foskolin): 13.2 nM | IC50 [3]: 0.655 nM

SMILES: [O-][S+]1CCc2nc(N3CCc4c(c(NCCO)nc5cc(Cl)ccc45)C3)nc(NC3(CO)CCC3)c21 (stereo not drawn) [Compound 103]
IC50 [1]: 0.873 nM | Cell Inhibition% @1 nM ([2]; 1 nM): 2.83% | Cell Inhibition% @10 nM [2]: 38.89% | Cell Inhibition% @100 nM [2]: 95.41% | IC50 [3]: 0.338 nM

SMILES: [O-][S+]1CCc2nc(N3CC[C@@H]4c5cccc(Cl)c5OC[C@H]4C3)nc(NC3(CO)CCC3)c21 (stereo partly drawn) [Compound 107]
IC50 [1]: 2.95 nM | Cell Inhibition% @1 nM ([2]; 1 nM): 2.82% | Cell Inhibition% @10 nM [2]: 52.48% | Cell Inhibition% @100 nM [2]: 98.12% | IC50 [3]: 1.14 nM

SMILES: [O-][S+]1CCc2nc(N3CC[C@@H]4c5cc(Cl)ccc5OC[C@H]4C3)nc(NC3(CO)CCC3)c21 (stereo partly drawn) [Compound 108]
IC50 [1]: 4.17 nM | Cell Inhibition% @1 nM ([2]; 1 nM): -0.82% | Cell Inhibition% @10 nM [2]: 37.35% | Cell Inhibition% @100 nM [2]: 95.13% | IC50 [3]: 1.41 nM

SMILES: [O-][S+]1CCc2nc(N3CC[C@H]4c5ccc(Cl)cc5OC[C@H]4C3)nc(NC3(CO)CCC3)c21 (stereo partly drawn) [Compound 116]
IC50 [1]: 12.4 nM | Cell Inhibition% @1 nM ([2]; 1 nM): 2.17% | Cell Inhibition% @10 nM [2]: 16.91% | Cell Inhibition% @100 nM [2]: 73.36% | IC50 [3]: 3.01 nM

SMILES: O=C(O)Cc1ccc(Nc2nc(N3CCc4cc(Cl)ccc4C3)nc3c2[S@@+]([O-])CC3)cc1 [Compound 128]
IC50 [1]: 18.1 nM | Cell Inhibition% @1 nM ([2]; 1 nM): -0.97% | Cell Inhibition% @10 nM [2]: 6.68% | Cell Inhibition% @100 nM [2]: 25.39% | IC50 [3]: 5.43 nM

Molecules with a lower IC50 [1], results first:

IC50 [1]: 0.705 nM | Cell Inhibition% @1 nM ([2]; 1 nM): 6.93% | Cell Inhibition% @10 nM [2]: 39.59% | Cell Inhibition% @100 nM [2]: 72.19% | IC50 [3]: 0.202 nM
SMILES: O=C(O)Cc1ccc(Nc2nc(N3CCc4cc(Cl)ccc4C3)nc3c2[S@+]([O-])CC3)cc1 [Compound 129]

IC50 [1]: 0.655 nM | Cell Inhibition% @1 nM ([2]; 1 nM): 14.20% | Cell Inhibition% @10 nM [2]: 47.36% | Cell Inhibition% @100 nM [2]: 96.42% | IC50 [3]: 0.332 nM
SMILES: [O-][S+]1CCc2nc(N3CCc4cc(I)ccc4C3)nc(NC3(CO)CCC3)c21 (stereo not drawn) [Compound 67]

IC50 [1]: 0.603 nM | Cell Inhibition% @1 nM ([2]; 1 nM): 14.02% | Cell Inhibition% @10 nM [2]: 61.02% | Cell Inhibition% @100 nM [2]: 94.24% | IC50 [3]: 0.344 nM
SMILES: CS(=O)(=O)c1ccc2c(c1)CCN(c1nc3c(c(NC4(CO)CCC4)n1)[S+]([O-])CC3)C2 (stereo not drawn) [Compound 93]

IC50 [1]: 0.481 nM | Cell Inhibition% @1 nM ([2]; 1 nM): 8.69% | Cell Inhibition% @10 nM [2]: 63.13% | Cell Inhibition% @100 nM [2]: 97.77% | IC50 [3]: 0.24 nM
SMILES: CN1CCN(c2ccc3c(c2)CCN(c2nc4c(c(NC5(CO)CCC5)n2)[S+]([O-])CC4)C3)C1=O (stereo not drawn) [Compound 86]

IC50 [1]: 0.385 nM | Cell Inhibition% @1 nM ([2]; 1 nM): 14.99% | Cell Inhibition% @10 nM [2]: 65.79% | Cell Inhibition% @100 nM [2]: 97.23% | IC50 [3]: 0.19 nM
SMILES: [O-][S+]1CCc2nc(N3CCc4cc(-n5ccnc5)ccc4C3)nc(NC3(CO)CCC3)c21 (stereo not drawn) [Compound 90]

IC50 [1]: 0.233 nM | Cell Inhibition% @1 nM ([2]; 1 nM): 19.25% | Cell Inhibition% @10 nM [2]: 86.01% | Cell Inhibition% @100 nM [2]: 99.96% | IC50 [3]: 0.142 nM
SMILES: [O-][S+]1CCc2nc(N3CCc4cc(-n5cccn5)ccc4C3)nc(NC3(CO)CCC3)c21 (stereo not drawn) [Compound 91]

IC50 [1]: 0.157 nM | Cell Inhibition% @1 nM ([2]; 1 nM): 41.7% | Cell Inhibition% @10 nM [2]: 97.0% | Cell Inhibition% @100 nM [2]: 101.1% | IC50 [3]: 0.085 nM
SMILES: [O-][S+]1CCc2nc(N3CCc4cc(-c5cnco5)ccc4C3)nc(NC3(CO)CCC3)c21 (stereo not drawn) [Compound 85]

IC50 [1]: 0.125 nM | Cell Inhibition% @1 nM ([2]; 1 nM): 34.83% | Cell Inhibition% @10 nM [2]: 94.09% | Cell Inhibition% @100 nM [2]: 100.44% | IC50 [3]: 0.0712 nM
SMILES: Cn1cnc(-c2ccc3c(c2)CCN(c2nc4c(c(NC5(CO)CCC5)n2)[S+]([O-])CC4)C3)n1 (stereo not drawn) [Compound 94]

IC50 [1]: 0.049 nM | Cell Inhibition% @1 nM ([2]; 1 nM): 61.02% | Cell Inhibition% @10 nM [2]: 99.37% | Cell Inhibition% @100 nM [2]: 100.73% | IC50 [3]: 0.05 nM
SMILES: Cn1ccc(-c2ccc3c(c2)CCN(c2nc4c(c(NC5(CO)CCC5)n2)[S+]([O-])CC4)C3)n1 (stereo not drawn) [Compound 77]
